The results in this text go back to publication PMC4047407 (The Journal of Biological Chemistry, 2014).

Where a SMILES comes first, the peptide text is derived from it. Bridges are numbered along the chain shown (N, C = ends).

One assay has as its target T1, M. sexta V-ATPase (Manduca sexta, UniProt P31403).
T1 construct: The M. sexta V1Vo holoenzyme was extracted and purified as described previously; from tissue
Description: V-ATPase assay, detection of released phosphate, purified V1Vo holoenzyme. In kind it is biochemical. To be noted: Fig. 5, read-out: apparent Ki, inhibition of M. sexta V-ATPase. The procedure: (§1) S. oryzae strains WAA42 and ISOR3 were reared according to Louis et al. ([25]). […] PA1b labeling using ^125I and binding assays using the ^125I toxin were performed according to Ref. [22], and binding data were analyzed using the SIMFIT software. Fifth instar larvae of M. sexta (Lepidoptera, Sphingidae), weighing 6–8 g, were reared under long day conditions (16 h of light) at 27 °C using the gypsy moth diet (MP Biomedicals).
(§2) V-ATPase assays based on the detection of released phosphate using the M. sexta V-ATPase or yeast vacuolar membranes were carried out as reported previously ([23], [28], [29]).
(§3) FIGURE 5. Inhibition of yeast V-ATPase activity. […] For comparison, inhibition of the purified V1Vo holoenzyme of M. sexta (squares) by PA1b is included.

Assay [1] deals with V-ATPase from wild type S. cerevisiae strain BMA64-1B (Saccharomyces cerevisiae, UniProt P23968+P25515+P32842). Description: V-ATPase assay on yeast vacuolar membranes, wild type strain. It is filed as biochemical. To be noted: Fig. 5, read-out: Ki, inhibition of V-ATPase activity. The procedure: as §2, §3
Assay [2] deals with crude membrane extract of S. oryzae (PA1b binding site). Also noted: species or system Sitophilus oryzae. To be noted: WAA42 membrane extracts; bafilomycin up to 10 μM; data not shown.
A further assay concerns S. oryzae strain WAA42. Description: Weevil toxicity bioassay, inhibitor in the food, PA1b-sensitive strain. As to conditions: 30 weevils, artificial diet over 14 days. In kind it is in vivo, Sitophilus oryzae. The procedure: as §1
(§4) FIGURE 6. […] 30 rice weevils (S. oryzae) were fed on artificial diet incorporating each tested compound over 14 days. The weevil strains were WAA42 (PA1b-sensitive strain: open symbols) and ISOR3 (PA1b-resistant strain: filled symbols). […] Open diamonds/dashed line, control for artificial diet with bafilomycin solvent.

The test system of a further assay is S. oryzae strain ISOR3. Description: Weevil toxicity bioassay, inhibitor in the food, PA1b-resistant strain. It is filed as in vivo, Sitophilus oryzae. As to conditions: 30 weevils; for Mortality: 14 days. The protocol: as §1, §4

T1 sequence (P31403 whole entry): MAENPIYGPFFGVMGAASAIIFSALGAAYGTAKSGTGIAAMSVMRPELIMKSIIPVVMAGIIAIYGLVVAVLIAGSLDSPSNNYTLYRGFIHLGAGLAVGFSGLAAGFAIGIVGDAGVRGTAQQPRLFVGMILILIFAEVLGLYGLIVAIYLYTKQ

On to `CC[C@H](C)[C@@H]1NC(=O)[C@H](C(C)C)NC(=O)[C@H](CC(C)C)NC(=O)CNC(=O)[C@H](C(C)C)NC(=O)[C@@H]2CCCN2C(=O)[C@H]([C@@H](C)CC)NC(=O)[C@@H]2CSSC[C@@H]3NC(=O)[C@H](C(C)C)NC(=O)CNC(=O)[C@H](CC(N)=O)NC(=O)[C@@H](NC(=O)[C@H](CO)NC(=O)[C@H](C)N)CSSC[C@H](NC(=O)[C@H](C)NC(=O)[C@H](CO)NC(=O)[C@H]([C@@H](C)O)NC(=O)CNC(=O)[C@H](CSSC[C@@H](C(=O)N[C@@H](CCCNC(=N)N)C(=O)N[C@@H](CC(N)=O)C(=O)N4CCC[C@H]4C(=O)N[C@@H](CO)C(=O)NCC(=O)O)NC(=O)[C@H](Cc4ccc(O)cc4)NC(=O)CNC1=O)NC(=O)[C@@H]1CCCN1C(=O)[C@@H]1CCCN1C(=O)[C@H](CCSC)NC(=O)[C@H](CCC(=O)O)NC(=O)[C@H](Cc1ccccc1)NC(=O)[C@@H]1CCCN1C(=O)[C@H](CO)NC3=O)C(=O)N[C@@H](CCCNC(=N)N)C(=O)N2` [PA1b, pea albumin 1 subunit b] (H-ASCNGVCSPFEMPPCGTSACRCIPVGLVIGYCRNPSG-OH; disulfide 3-20, 7-22, 15-32), for which, on M. sexta V-ATPase, the Ki is approximately 91 nM.

For `CO/C1=C\C(C)=C\[C@@H](C)[C@@H](O)[C@@H](C)C/C(C)=C/C=C/[C@H](OC)[C@@H]([C@@H](C)[C@@H](O)[C@H](C)[C@@]2(O)C[C@@H](O)[C@H](C)[C@@H](C(C)C)O2)OC1=O` [bafilomycin, bafilomycin A1], in assay [1], the Ki is approximately 2.4 nM. For the same compound, in assay [2], the “Inhibition of binding of radiolabeled PA1b by bafilomycin” value is recorded as “unable to inhibit”. Further, the TL50 is listed as 12.6 ± 2.3 days in the assay on S. oryzae strain WAA42 (bafilomycin 0.36 mg/g of food); 9.4 ± 1 days in the assay on S. oryzae strain WAA42 (bafilomycin 0.60 mg/g of food); 4.0 ± 0.2 days with S. oryzae strain WAA42 (bafilomycin 2.0 mg/g food); 9.9 ± 0.5 days in the assay on S. oryzae strain ISOR3 (bafilomycin 2.0 mg/g food, artificial diet over 14 days). For the same compound, the Mortality result with S. oryzae strain ISOR3 (bafilomycin 0.36 mg/g of food) and in the assay with S. oryzae strain ISOR3 (bafilomycin 0.60 mg/g of food) was “no mortality” throughout.
